# Legend:
# [1] = test system: spleen pLck and IFNγ+ cells; assay: in vivo induction of spleen pLck and IFNγ+ cells in mice; design: species or system mouse
# Method: Spleens were harvested one hour post-treatment on day 4 and processed into splenocytes, which were used for assessing pLck levels by SDS-PAGE/Western blotting and for quantification of IFNγ+ cells by ELISPOT assays. Mice were also treated with L5 (˜10 mg/kg body weight, daily, s.c., n=2) to evaluate the toxicity of the compounds in vivo.
# [2] = test system: B16 melanoma tumors; assay: B16 melanoma tumor growth in C57BL/6J mice; type: in vivo
# Method: Tumor volume (n=5) was measured during the study period and calculated using the formula for a prolate spheroid. Student's t test was used for assessing the significance of tumor volume differences among differential treatment groups. Mouse viability (daily) and body weights (weekly) were also recorded during the study period. Major internal organs of the mice were inspected visually upon their termination at the end of the experiment.
# To assess anti-tumor activity, C57BL/6J mice (˜8-week old, female, Taconic Farms, Germantown, N.Y.) were inoculated (s.c.) at the flanks with B16 melanoma cells (4×10^4 cells/site). […] Tumor volume (n=5) was measured during the study period and calculated using the formula for a prolate spheroid. Student's t test was used for assessing the significance of tumor volume differences among differential treatment groups. Mouse viability (daily) and body weights (weekly) were also recorded during the study period. Major internal organs of the mice were inspected visually upon their termination at the end of the experiment.
# [3] = test system: IFNγ+ cells in human peripheral blood; assay: induction of IFNγ+ cells in human peripheral blood in vitro (ELISPOT); type: cell-based
# Method: For induction of human primary IFNγ+ cells, heparinized peripheral blood samples were obtained by vein-puncture from healthy volunteers following an established protocol approved by the Institutional Review Board (IRB) of Cleveland Clinic. To mimic in vivo drug-exposure, human peripheral blood samples were directly treated with different agents without pre-separation of white blood cells from other blood components. Blood samples (0.1 ml/sample) were mixed with the agents, incubated at 37° C. for 4 hrs, diluted with 5 volumes of hypotonic solution (10 mM Tris, pH 7.4; 10 mM NaCl) to lyse RBC and centrifuged to pellet WBCs. The pellets were washed with hypotonic solution one time, re-suspended in RPMI 1640 medium (10% FCS) and used for ELISPOT assays (Human IFNγ ELISPOT Kit, R & D System) to quantify human IFNγ+ cells as outlined above.
# [4] = test system: SHP-1 substrate pLck-pY394 in Jurkat T cells; assay: induction of pLck-pY394 in Jurkat cells (SDS-PAGE/Western blotting); type: cell-based, human
# Method: (§1) Jurkat cells in culture medium (3×10^6 cells/ml, 1 ml/tube) were treated with agents for designated times at room temperature. After brief centrifuging in a microfuge (4,000 rpm, 2 min), the cell pellet was lysed on ice for 30 min in 100 μl of cold lysis buffer (1% NP40, 50 mM Tris, pH 7.4, 150 mM NaCl, 20 mM NaF, 0.2 mM Na3VO4 and 1 mM Na3MO4) containing a cocktail of proteinase inhibitors (Sigma, 1 tablet/10 ml). The lysates were cleared by centrifuging (14,000 rpm, 10 min) in a microfuge at 4° C. to remove insoluble parts, mixed with equal volume of 2×SDS-PAGE sample buffer, boiled for 5 min and analyzed (˜3×10^5 cells/well) by SDS-PAGE/Western blotting. Relative intensities of phosphotyrosine bands were quantified through densitometry analysis.
# as §1, with “blotting as described previously (23, 24).” for “blotting.”
# as §1, with “blotting as described previously (17, 18).” for “blotting.”
# [5] = test system: pERK1/2 in Jurkat cells; assay: pERK1/2 in Jurkat cells (Western blotting); type: cell-based, human
# Method: as §1
# as §1, with “blotting as described previously (17, 18).” for “blotting.”
# [6] = test system: B16 melanoma cells; assay: B16 melanoma cell growth in culture (MTT assay); type: cell-based, mouse; details: doses up to 10 μg/ml, 5 days
# From the text: L5, L6 and L6 analogs (Chembridge), mouse IFNγ ELISPOT Kit (R & D System) and antibody against pLck-pY394 or pERK1/2 (Cell Signaling) were purchased from commercial sources. Human Jurkat T cell line and murine B16 melanoma cell line (ATCC) and other cancer cell lines were maintained in […] culture medium supplemented with 10% fetal calf serum (FCS). The effects of chemical compounds on cancer cell growth in culture were quantified by MTT assays following our established procedures.
smiles,measurement,setting,value
O=C1C=CC(=O)C(c2cc(Cl)ccc2Cl)=C1 [L5],effect on pLck,[1]; 1 mg/kg of body weight,only a minor effect
same,increase of splenocyte pLck,"[1]; ~3 mg/kg of body weight, s.c., daily, 4 days",~3.3 fold
same,increase of spleen IFNγ+ cells,"[1]; ~3 mg/kg, s.c., daily, 4 days",approximately 3 fold
same,survival of treated mice,"[2]; 1 mg/kg daily, oral gavage",survived till the end of the study
same,abnormality in behavior or gross anatomy,"[2]; 3 mg/kg/day, oral",no apparent abnormality in behavior or gross anatomy
same,survival of treated mice,"[2]; 3 mg/kg/day, oral",survived until the end of the study
same,growth inhibition of B16 tumors vs control,"[2]; 3 mg/kg/day, oral, M-F/week, end of study",~83%
same,maximal induction of IFNγ+ cells in human peripheral blood,[3]; 8 μg/ml,20 fold
same,effectiveness compared with SSG in inducing IFNγ+ cells,"[3]; maximal induction at a comparable dose, human peripheral blood",~20 fold
same,level capable of inhibiting SHP-1 in Jurkat T cells,[4],10 ng/mL
same,level capable of inhibiting SHP-1 in Jurkat T cells (molar),[4],~40 nM
same,pLck-pY394 induction,"[4]; 0.01 μg/ml, 10 min",2-3 fold
same,pLck-pY394 induction,"[4]; 0.1, 1 or 3 μg/ml, 10 min",> 4 folds
same,effective dose for pLck-pY394 induction / intracellular SHP-1 inhibition,"[4]; Jurkat cells, 10 min",≥ 0.01 μg/ml
same,pLck-pY394 induction in comparison to untreated control,"[4]; Jurkat cells, 10 min, densitometry (FIG. 2)",~10 fold
same,potency relative to SSG,[4]; by weight,"approximately 1,000 fold"
same,potency relative to SSG,[4]; in equal molar ratios,~350 fold
same,levels of pERK1/2,[5]; 1 μg/ml,reduced the levels of pERK1/2
same,effect on SHP-2 or CD45 phosphatases,[5]; 10-100 ng/ml in Jurkat cells,did not affect
same,levels of pERK1/2,[5]; lower doses (0.1 to 0.001 μg/ml),not at lower doses
same,direct toxicity against B16 cells,[6],little direct toxicity

# Source: patent publication US20080051464A1, “Protein phosphatase inhibitors” (The Cleveland Clinic Foundation, priority 2006, published 2008)
